Experimental data published in patent publication US9271960B2, “Tetrahydrocarbazoles as active agents for inhibiting VEGF production by translational control” (PTC Therapeutics, Inc., priority 2004, dated 2016).

Tested on: VEGF
Experiment: Hypoxia-inducible endogenous VEGF expression ELISA in HeLa cells
Format: cell-based
Settings: Homo sapiens, HeLa, compounds 191-239, hypoxic conditions, VEGF protein by ELISA, read-out: ELISA Activity EC50
Outline: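 HeLa cells held 24–48 h in hypoxia (1% O2) with a concentration series of compound; VEGF secreted into media quantified by ELISA against a standard curve. Parallel Cell Titer Glo viability under identical conditions gives CC50; EC50 from percent-inhibition curves.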

SMILES	EC50 [nM]
OC(COc1ccc(C2CCCCc3c2[nH]c2ccc(Br)cc32)cc1)Cn1cncn1 (centres unmarked) [Compound 226]	40 to 200
OC(COc1ccc(C2CCCc3c2[nH]c2ccc(Br)cc32)cc1)Cn1nccn1 (centres unmarked) [Compound 227]	< 10
OC(COc1ccc(C2CCCCc3c2[nH]c2ccc(Cl)cc32)cc1)CN1CCOCC1 (centres unmarked) [Compound 228]	10 to 40
COc1ccc(C2CCCCc3c2[nH]c2ccc(Cl)cc32)cc1 (centres unmarked) [Compound 229]	10 to 40
Oc1ccc(C2CCCCc3c2[nH]c2ccc(Cl)cc32)cc1 (centres unmarked) [Compound 230]	< 10
OC(COc1ccc(C2CCCCc3c2[nH]c2ccc(Cl)cc32)cc1)Cn1ccnc1 (centres unmarked) [Compound 231]	< 10
OC(COc1ccc(C2CCCCc3c2[nH]c2ccc(Cl)cc32)cc1)Cn1ccnn1 (centres unmarked) [Compound 232]	10 to 40
OC(COc1ccc(C2CCCCc3c2[nH]c2ccc(Cl)cc32)cc1)CN1CCSCC1 (centres unmarked) [Compound 233]	< 10
COCCN(CCOC)CC(O)COc1ccc(C2CCCCc3c2[nH]c2ccc(Cl)cc32)cc1 (centres unmarked) [Compound 234]	< 10
OC(COc1ccc(C2CCCCc3c2[nH]c2ccc(Cl)cc32)cc1)Cn1cncn1 (centres unmarked) [Compound 235]	10 to 40
OC1CCc2c([nH]c3ccc(Br)cc23)C1c1ccccc1 (centres unmarked) [Compound 236]	40 to 200
Cc1ccc(C2c3[nH]c4ccc(Br)cc4c3CCC2O)cc1 (centres unmarked) [Compound 237]	200 to 1000
OC1CCc2c([nH]c3ccc(Br)cc23)C1c1ccc(Cl)cc1 (centres unmarked) [Compound 238]	< 10
OC1CCc2c([nH]c3ccc(Br)cc23)C1c1ccc(F)cc1 (centres unmarked) [Compound 239]	< 10
